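Grown in 96-well plates, cells were treated for 48 hours with each compound at five concentrations. Insufficient inhibition: endpoint recorded as highest concentration tested. GI50: concentration for 50% inhibition of growth.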 The source made the active and inactive calls. Rule as the data show it: active = GI50 up to about 1.1 µM and inactive = higher.
Columns and labels:
Experiment in all cases: DTP human tumour cell line panel, 48 h
[1] = system: A549
[2] = system: Hs-578T
[3] = system: LOX IMVI
[4] = system: MDA-MB-435
[5] = system: HCT-116
[6] = system: K562
[7] = system: SW-620
[8] = system: SF-539
[9] = system: M14
[10] = system: HCT-15
[11] = system: NCI-H23
[12] = system: T47D
[13] = system: HOP-92
[14] = system: SK-MEL-28
[15] = system: HOP-62
[16] = system: SF-295
[17] = system: NCI/ADR-RES
[18] = system: OVCAR-8
[19] = system: SNB-75
[20] = system: SR

Structure (SMILES) | GI50 [1] | GI50 [2] | GI50 [3] | GI50 [4] | GI50 [5] | GI50 [6] | GI50 [7] | GI50 [8] | GI50 [9] | GI50 [10] [µM] | GI50 [11] | GI50 [12] | GI50 [13] | GI50 [14] | GI50 [15] | GI50 [16] | GI50 [17] | GI50 [18] | GI50 [19] | GI50 [20]
O=[N+]([O-])c1cccc2nc3ccccc3c(NCCCNc3c4ccccc4nc4cccc([N+](=O)[O-])c34)c12 | < 0.0175 µM (active) | 0.0162 µM (active) | 0.0977 µM (active) | 0.0167 µM (active) | 0.0103 µM (active) | < 0.01 µM (active) | < 0.01 µM (active) | 0.0161 µM (active) | < 0.0177 µM (active) | < 0.0138 | 0.0182 µM (active) | 0.0537 µM (active) | < 0.01 µM (active) | 0.0505 µM (active) | < 0.0156 µM (active) | 0.037 µM (active) | 0.249 µM (active) | < 0.0139 µM (active) | 0.0328 µM (active) | –
O=C(OCC1CCCN2CCCCC12)c1cccnc1 (centres undefined) | > 100 µM (inactive) | > 100 µM (inactive) | > 100 µM (inactive) | > 100 µM (inactive) | > 100 µM (inactive) | > 100 µM (inactive) | > 100 µM (inactive) | > 100 µM (inactive) | – | > 100 | > 100 µM (inactive) | > 100 µM (inactive) | > 100 µM (inactive) | > 100 µM (inactive) | – | > 100 µM (inactive) | > 100 µM (inactive) | > 100 µM (inactive) | > 100 µM (inactive) | –
O=C(CSc1nc2ccc(I)cc2c(=O)n1Cc1ccccc1)NNC(=S)Nc1ccccc1 | 24.6 µM (inactive) | 7.78 µM (inactive) | > 100 µM (inactive) | 41.3 µM (inactive) | 8.63 µM (inactive) | 11.3 µM (inactive) | 33.6 µM (inactive) | – | 62.2 µM (inactive) | 8.95 | 15.1 µM (inactive) | 23.5 µM (inactive) | 11.8 µM (inactive) | > 100 µM (inactive) | – | 54 µM (inactive) | 77.6 µM (inactive) | 3.11 µM (inactive) | > 100 µM (inactive) | 3.1 µM (inactive)
COC1(OC)CC(CO)(CNc2cc(Cl)nc(N)n2)C1 | > 100 µM (inactive) | > 100 µM (inactive) | > 100 µM (inactive) | > 100 µM (inactive) | > 100 µM (inactive) | > 100 µM (inactive) | > 100 µM (inactive) | > 100 µM (inactive) | – | > 100 | > 100 µM (inactive) | 24.9 µM (inactive) | > 10 µM (inactive) | > 100 µM (inactive) | > 100 µM (inactive) | > 100 µM (inactive) | > 100 µM (inactive) | > 100 µM (inactive) | – | > 100 µM (inactive)
COc1cc(C[C@@H](C)N)cc(OC)c1 | > 100 µM (inactive) | > 100 µM (inactive) | > 100 µM (inactive) | > 100 µM (inactive) | > 100 µM (inactive) | > 100 µM (inactive) | > 100 µM (inactive) | > 100 µM (inactive) | > 100 µM (inactive) | > 100 | > 100 µM (inactive) | > 100 µM (inactive) | – | > 100 µM (inactive) | > 100 µM (inactive) | > 100 µM (inactive) | > 100 µM (inactive) | > 100 µM (inactive) | 21.8 µM (inactive) | > 100 µM (inactive)
Cc1c([C@H](C)[C@@H]2NC[C@@H](C)C[C@H]2O)ccc2c1C[C@H]1[C@H]2CC=C2C[C@@H](O)CC[C@@]21C [VERATRAMINE] | 16.7 µM (inactive) | 20.6 µM (inactive) | 11.6 µM (inactive) | 12.9 µM (inactive) | 14.3 µM (inactive) | 12.1 µM (inactive) | 28.6 µM (inactive) | – | 15.7 µM (inactive) | 20.2 | 11.7 µM (inactive) | 12.9 µM (inactive) | 2.07 µM (inactive) | 17.3 µM (inactive) | 23.4 µM (inactive) | 12.4 µM (inactive) | 23.4 µM (inactive) | 21.9 µM (inactive) | 17.5 µM (inactive) | –
